Assays:
Assay type in all cases: in vivo, human
[1] = Part I single-ascending-dose plasma pharmacokinetics (HPLC-MS/MS, noncompartmental)
Method: (§1) Pyragrel administration regimens are as follows: In the single-escalating-dose study (Part I), a total of 52 subjects are enrolled to receive one of three treatments (pyragrel, ozagrel, or placebo, diluted in 500 Ml normal saline) as a 3-h i.v. infusion. Six dose levels of pyragrel (30, 60,120, 180, 240, 300 mg) were intravenously infused to healthy subjects. Of the 12 subjects each at the first three dose groups (30, 60, and 120 mg), 8 received pyragrel, 2 received ozagrel (80 mg), and 2 received placebo. Eight subjects were assigned as 4/2/2 for pyragrel, ozagrel, and placebo at the 180 mg level. Only four subjects were enrolled at the 240- and 300-mg group each; all received pyragrel. […] In the saline-volume-changed study (Part II), the safety and pharmacokinetics of pyragrel were assessed by decreasing the volume of dilution saline. Four subjects received a single 3 h infusion of pyragrel 240 mg diluted in 250 ml saline instead of the 500 ml used in Part I. Blood samples were collected at multiple time points before and after the initiation of the infusion in Part I and Part II; 15 blood samples were predetermined as follows: before drug administration (time 0), 0.5, 1, 2, 3 (4 samples collected during infusion), 3.25, 3.5, 4, 5, 7, 9, 11, 15, 24, and 48 h (10 samples collected post infusion) after the initiation of the infusion. In the multiple-dose study (Part III), 12 subjects received a single 3 h infusion of 180 mg pyragrel (diluted in 250 ml saline) on Day 1 and Day 6 and twice 3 h infusion of 180 mg pyragrel from Day 2 to 5; 14 blood samples were collected on Day 1 and Day 6 before drug administration (0 h), 0.5, 1, 2, 3, 3.25, 3.5, 4, 5, 7, 9, 11, 15, 24 h after the initiation of the infusion; moreover, 5 ml cubital vein blood was collected each time right before pyragrel infusion on Day 2 to Day 5. In the 3×3 crossover study (Part IV), 12 subjects were randomized to receive each of the three dosing groups (60, 120, or 240 mg) of pyragrel (diluted with 250 ml saline, 3 h infusion) per period, with a 7-day washout period between doses. Sixteen blood samples were collected as follows: before drug administration (0 h), 0.17, 0.35, 0.5, 1, 2, 3, 3.25, 3.5, 4, 5, 7, 9, 11, 15, and 24 h after the initiation of the infusion at each period. In the prolonged infusion study (Part V), four subjects received continuous 24 h infusion of pyragrel 360 mg (diluted in 600 ml saline); 19 blood samples were collected as follows: before drug administration (0 h), 0.25, 0.5, 1, 2, 4, 8, 12, 16, 20 (nine samples collected during administration), 24.25, 24.5, 25, 26, 28, 30, 32, 36, and 48 h after the initiation of the infusion (details shown in Figure 1 ). In all five cohorts, 5 ml of cubital vein blood was collected with a sodium heparin anticoagulant tube and centrifuged at 3000 r·min^-1. Each plasma sample was divided into two aliquots and stored at −20°C until further bioanalysis. […] Briefly, 10 µl of the extract drug from […] was injected onto a Zorbax EcLipse XDB C18 column (2.1 mm × 150 mm, 5 μm) (Agilent, USA) using isocratic elution with a mobile phase composed of methanol, water, and formic acid (65:35:0.1, v/v/v). Determination of the analytes was achieved by tandem-mass spectrometry with positive electrospray ionization.
(§2) Pharmacokinetic parameters were calculated using the noncompartmental model (NCA module), WinNonlin 6.1 (Pharsight Corporation, Mountain View, CA, USA). Statistical analysis was performed with SPSS 18. The actual dosing and sampling times were utilized in the analysis. Pharmacokinetic parameters were summarized by dose regimens using descriptive statistics, including n, mean, and the coefficient of variation (CV). For Tmax, only n, min, median, and max were reported.

[2] = Part II saline-volume-changed study, plasma pharmacokinetics; details: single-dose infusion of 240 mg pyragrel diluted in 250 ml saline, n=4
Method: as §1, §2

[3] = Part III multiple-dose study, plasma pharmacokinetics
Method: as §1, §2

[4] = Part I, single 3-h i.v. infusion of pyragrel 30 mg, plasma, n=8, mean ± SD
[5] = Part I, single 3-h i.v. infusion of pyragrel 60 mg, plasma, n=8, mean ± SD
[6] = Part I, single 3-h i.v. infusion of pyragrel 120 mg, plasma, n=8, mean ± SD
[7] = Part I, single 3-h i.v. infusion of pyragrel 180 mg, plasma, n=4, mean ± SD
[8] = Part I, single 3-h i.v. infusion of pyragrel 240 mg, plasma, n=4, mean ± SD
[9] = Part I, single 3-h i.v. infusion of pyragrel 300 mg, plasma, n=4, mean ± SD
[10] = Part III, multiple dose, 3-h infusions of pyragrel 180 mg for 6 days, plasma, n=12
[11] = Part III, single dose, 3-h infusion of pyragrel 180 mg, plasma, n=12

## COc1cc(C=CC(=O)[O-])ccc1OCc1nc(C)c(C)nc1C.[Na+] [Pyragrel, sodium pyragrel]
[1]; 30–300 mg dose range
  Pharmacokinetic process over the dose range: linear
[1]; Part I, across all six dose groups (30-300 mg), 3 h infusion
  Tmax: about 3 h
[1]; Part I, at 4 h after initiation of the 3 h infusion
  Plasma concentration remaining, fraction of Cmax: 1/20
[1]; [4]
  AUCINF: 1,051.0 ± 185.8 h*µg·L^-1
  AUClast: 1,047.5 ± 182.7 h*µg·L^-1
  Cl: 29.26 ± 4.69 L/h
  Tmax: 2.75 ± 0.46 h
  Vz: 96.16 ± 31.87 L
  t1/2: 2.39 ± 1.03 h
[1]; [5]
  AUCINF: 2,009.4 ± 235.97 h*µg·L^-1
  AUClast: 2,003.7 ± 235.9 h*µg·L^-1
  Cl: 30.23 ± 3.58 L/h
  Cmax: 711.8 ± 100.2 µg/L
  Tmax: 2.88 ± 0.35 h
  Vz: 203.0 ± 81.47 L
  t1/2: 4.62 ± 1.69 h
[1]; [6]
  AUCINF: 4,300.5 ± 807.5 h*µg·L^-1
  AUClast: 4,287.2 ± 812.7 h*µg·L^-1
  Cl: 28.76 ± 5.26 L/h
  Cmax: 1,435.6 ± 319.5 µg·L^-1
  Tmax: 2.88 ± 0.35 h
  Vz: 278.0 ± 162.5 L
  t1/2: 6.64 ± 3.53 h
[1]; [7]
  AUCINF: 7,390.5 ± 414.7 h*µg·L^-1
  AUClast: 7,376.5 ± 413.0 h*µg·L^-1
  Cl: 24.41 ± 1.41 L/h
  Cmax: 2,622.5 ± 439.9 µg·L^-1
  Tmax: 3.00 ± 0.00 h
  Vz: 334.4 ± 110.8 L
  t1/2: 9.64 ± 3.58 h
[1]; [8]
  AUCINF: 9,224.3 ± 2,716.3 h*µg·L^-1
  AUClast: 9,194.7 ± 2,703.5 h*µg·L^-1
  Cl: 27.50 ± 6.80 L/h
  Cmax: 3,144.2 ± 931.2 µg·L^-1
  Tmax: 2.75 ± 0.50 h
  Vz: 573.6 ± 180.3 L
  t1/2: 14.24 ± 1.66 h
[1]; [9]
  AUCINF: 9,315.3 ± 1,219.1 h*µg·L^-1
  AUClast: 9,301.4 ± 1,215.2 h*µg·L^-1
  Cl: 32.62 ± 4.29 L/h
  Cmax: 3,011.7 ± 303.2 µg·L^-1
  Tmax: 2.25 ± 0.50 h
  Vz: 454.6 ± 191.4 L
  t1/2: 9.88 ± 4.26 h
[2]
  AUCINF: 9638.78 ± 1487.08 ng·h/mL
  AUClast: 9600.11 ± 1446.10 ng·h/mL
  Cl: 25.38 ± 4.18 L/h
  Cmax: 3360.73 ± 622.63 ng/mL
  MRTINF: 1.02 ± 0.33 h
  MRTlast: 0.90 ± 0.16 h
  Tmax: 3.00 ± 0.00 h
  Vz: 221.12 ± 75.68 L
  t1/2: 6.19 ± 2.63 h
  λz: 0.13 ± 0.04 h⁻¹
[3]; [10]
  AUCINF: 6,939.5 ± 2,072.8 h*µg·L^-1
  AUCTAU: 6,854.5 ± 2,062.7 h*µg·L^-1
  AUClast: 6,909.9 ± 2066.8 h*µg·L^-1
  Cl: 28.49 ± 8.49 L/h
  Cmax: 2,447.8 ± 825.3 µg·L^-1
  Tmax: 2.42 ± 0.67 h
  t1/2: 6.51 ± 2.73 h
[3]; Part III, pyragrel 180 mg, printed in column Single dose, footnote a: steady-state trough concentration, n=12
  Cmin: 4.22 ± 2.26^a µg·L^-1
[3]; Part III, pyragrel 180 mg, printed in column Single dose, footnote b: steady-state peak concentration, n=12
  Cavg: 571.2 ± 171.9^b µg·L^-1
[3]; [11]
  AUCINF: 6,680.3 ± 1,668.0 h*µg·L^-1
  AUClast: 6,663.3 ± 1665.7 h*µg·L^-1
  Cl: 28.85 ± 8.75 L/h
  Tmax: 2.83 ± 0.39 h
  Vz: 226.0 ± 141.7 L
  t1/2: 5.12 ± 1.91 h
[3]; Part III, single dose, 3-h infusion of pyragrel 180 mg, plasma, n=12, footnote c: steady-state average concentration
  Cmax: 2,311.9 ± 514.4^c µg·L^-1
[3]; repeated dose of pyragrel 180 mg for 6 days (once- or twice-daily dosing)
  Accumulation on repeated dose, in words: no accumulation

Source: article PMC6821791, “Phase I Trial of Pyragrel, a Novel Thromboxane Synthetase Inhibitor, to Evaluate the Safety, Tolerability, and Pharmacokinetics in Healthy Volunteers” (Frontiers in Pharmacology, 2019)
